Test results reported in patent publication US20260294838A1, “ACTIVATION ENHANCER AND FOOD AND DRINK FOR ENHANCING ACTIVATION” (Asahi Group Holdings, Ltd., priority 2023, published 2026).

Legend:
[1] = tested on: EEG; experiment: Reference Example: EEG test in the same manner as in Test Example 4; format: in vivo, human (healthy Japanese men and women, 20 to 39 years old); details: 10-ppm aqueous solution, same manner as Test Example 4 (EEG), 20 subjects
Procedure: Each subject was instructed to wear an electroencephalograph (model number: HARU-2, manufactured by PGV Co., Ltd.), and to wait for 5 minutes at rest, and then asked to answer a questionnaire for one minute. Subsequently, each subject was instructed to ingest 200 mL of the test beverage within 5 minutes, and thereafter, to wait at rest except for answering the questionnaire for one minute immediately after the ingestion, 15 minutes after the ingestion, 30 minutes after the ingestion and 45 minutes after the ingestion. The EEG were measured from before the ingestion of the test beverage until 45 minutes after the ingestion. The same measurement was carried out one more time. The beverage to be ingested was selected at random for each subject, and each subject was instructed to ingest each beverage once.
In the analysis of EEG, the data obtained during the questionnaires and the ingestion that affect the EEG were excluded from the analysis target. The EEG measured during each waiting time at rest before and after the ingestion were analyzed using the MNE library (ver. 1.3.0) in Python language, and the B/a ratio was calculated from the two-minute data. No exclusion of target data was allowed, and all cases were analyzed as the target.
The test was carried out in the same manner as in Test Example 4, using a 10-ppm aqueous solution of each of: geraniol, which is the isomer of nerol; α-terpineol, which is a degradation product of nerol; and linalool, on 20 healthy Japanese men and women with ages ranging from 20 years old to 39 years old, as the subjects. As a result, the effect of enhancing activation was not observed in any of geraniol, α-terpineol and linalool.

[2] = tested on: brain blood flow; details: humans exposed to nerol and geraniol (aroma components of lemongrass extract); cited from earlier work
[3] = tested on: rats; details: cited from earlier work

Row | Structure (SMILES) | effect of enhancing activation [1] | amount of brain blood flow [2] | acceptable daily intake (ADI) per person ([3]; calculated, assuming an adult with a body weight of 50 kg) | acceptable daily intake (ADI) ([3]; calculated) | no-observed adverse effect level (NOAEL), lowest value ([3]; repeated dose toxicity study on rats)
1 | CC(C)=CCC/C(C)=C/CO [geraniol] | not observed | increased significantly |  |  | 
2 | C=CC(C)(O)CCC=C(C)C (centres unmarked) [linalool] | not observed |  |  |  | 
3 | CC(C)=CCC/C(C)=C\CO [nerol, (Z)-3,7-dimethyl-2,6-octadien-1-ol] |  | increased significantly | 95.5 mg/person/day | 1.91 mg/kg/day | 191 mg/kg/day
4 | CC1=CCC(C(C)(C)O)CC1 (stereo not drawn) [α-terpineol] | not observed |  |  |  | 
